Publication PMC9666555, “Genuine selective caspase-2 inhibition with new irreversible small peptidomimetics” (Cell Death & Disease, 2022)

Legend:
[1] = tested on: Molt4 lymphoid human cells; assay: Panobistat (LBH589)-induced cell death in Molt4 cells (propidium iodide, flow cytometry); assay type: cell-based; conditions: Molt4, 1 h pretreatment (30 µM or indicated doses), 25 nM LBH589 24 h
Method: (§1) HeLa cells (obtained from ATCC) were cultured in Dulbecco’s Modified Eagle Medium (DMEM, High Glucose, GlutaMAX™, Pyruvate) supplemented with antibiotics and 10% fetal calf serum (FCS) (Gibco, Life Technologies) and maintained in T75 Flasks at 1 × 10^6 cells per flask. Twenty-four hours before treatments, HeLa cells were transferred to 6-well plates (8 × 10^4 cells/well). The lymphoblastoid cell line Molt4cl8 was a gift from Dr. Bernard Krust (Inserm, University Paris 5) and was cultured in RPMI 1640 Glutamax medium supplemented with Hepes, antibiotics, and 10% FCS. HEK293 cells were obtained from ATCC (CRL-1573) and cultured in DMEM with Glutamax and 25 mM glucose (Life Technologies) supplemented with 10% FCS and antibiotics. For cell death induction, the following agents were added to cell cultures: Vincristine (Sigma) and Panobistat (LBH589; Selleck). Cell death was analyzed using fluorescence microscopy (Axio-observer Z1, Zeiss; equipped with CCD camera CoolsnapHQ2, Ropert Scientific) and cytofluorometry (MACSQuant® VYB; Miltenyi Biotec, Bergisch Gladbach, Germany) after labeling with propidium iodide (1 µg/mL; 10 min; 37 °C; Life Technologies) and Hoechst 33342 (1 µg/mL; 5 min; RT; Sigma).
Fig. 5 LJ2 inhibits cell death induced by microtubule destabilization and hydroxamic acid-based deacetylase (HDAC) inhibition. a Effect of the irreversible Caspase-2 inhibitors LJ2 against vincristine-induced cell death. HeLa cells were pretreated for 1 h with the indicated doses of LJ2, Q-VD-OPh, or Q-LETD-OPh, then treated with vincristine (VCR) as in Fig. 2, then incubated with propidium iodide at 2 μg/mL for 10 min and analyzed by flow cytometry. […] Molt4 lymphoid human cells where were pretreated for 1 h with 30 µM of LJ2, Q-VD-OPh, or Belnacasan (VX-765), then treated for 24 h with 25 nM of LBH589, then incubated with propidium iodide as in (a) and analyzed by flow cytometry. […] Molt4 cells were treated as in (b) with the indicated doses of LJ2 or Q-VD-OPh and analyzed by flow cytometry. […]

recombinant human Casp2 = target: T1, recombinant human Casp2 (Homo sapiens, UniProt P42575); assay: Enzyme mechanistic studies (Ki, k3, k3/KI), Caspase-2; assay type: biochemical; conditions: irreversible inhibitors, progress curve method
T1 sequence (P42575 170-325 limits assumed): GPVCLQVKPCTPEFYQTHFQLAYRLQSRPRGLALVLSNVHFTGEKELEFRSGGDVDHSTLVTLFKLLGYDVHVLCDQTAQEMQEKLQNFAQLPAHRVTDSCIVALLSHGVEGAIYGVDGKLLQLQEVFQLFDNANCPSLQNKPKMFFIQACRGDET
T1 sequence (P42575 348-452 limits assumed): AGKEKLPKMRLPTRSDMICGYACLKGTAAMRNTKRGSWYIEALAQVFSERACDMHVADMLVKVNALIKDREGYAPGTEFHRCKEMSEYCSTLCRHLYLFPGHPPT
Method: (§2) For reversible inhibitors, the mechanisms of inhibition were determined by varying substrate and inhibitor concentrations and using Lineweaver−Burk representations to determine the inhibition constants Ki of competitive inhibitors (Ki = [E][I]/[EI]). For suicide inhibitors, inactivation can be represented by the minimum kinetic scheme (Eq. 2), where E and I are the free forms of enzyme and inhibitor, E * I a kinetic chimera of the Michaelis complex and E − I the covalent complex (inactivated enzyme).2 E+I⇄KIE*I→k3E−I
(§3) KI and k3 are the kinetic constants characterizing the inactivation process and the k3/KI ratio is an index of the inhibitory potency. The first-order rate constant, k3, and the apparent dissociation constant, KI, were determined for Caspase-2 and -3 using the progress curve method. Briefly, the enzyme activities were measured continuously for 120 min. To determine the kinetic parameters, progress curves were obtained at several inhibition concentrations using fixed substrate concentration. The product released for each inhibitor concentration was plotted versus the time following Eq. 3 where the constant π depended on [I]’, a modified inhibitor concentration due to substrate competition, according to Eq. 4. [I]’ is defined by Eq. 5, where KM was Michaelis constant for the enzymatic hydrolysis of the appropriate fluorogenic substrate. The ratio k3/KI was obtained by fitting the experimental data to the equations (F.U., fluorescence unit):3 F.U.=∫0tvidt+F.U0−vo×e^−π×t/π+F.U.0 4 π=k3×[I]^′/KI+[I]^′ 5 [I]^′=[I]/1+S/KM
Linear and nonlinear regression fits of the experimental data to the equations were performed with KaleidaGraph software. The experimental conditions were [Caspase-2]0 = 0.2 nM, [Ac-VDVAD-AMC]0 = 25 µM and [Caspase-3]0 = 0.1 nM, [Ac-DEVD-AMC]0 = 10 µM; [I]0 = 0–100 µM.

recombinant human Casp3 = target: T2, recombinant human Casp3 (Homo sapiens, UniProt P42574); assay: Enzyme mechanistic studies (Ki, k3, k3/KI), Caspase-3; assay type: biochemical; conditions: irreversible inhibitors, progress curve method
T2 sequence (P42574 29-175 limits assumed): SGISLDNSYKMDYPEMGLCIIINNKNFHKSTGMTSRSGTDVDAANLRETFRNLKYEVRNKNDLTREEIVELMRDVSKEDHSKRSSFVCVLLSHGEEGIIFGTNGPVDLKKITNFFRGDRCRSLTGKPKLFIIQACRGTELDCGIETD
T2 sequence (P42574 176-277 limits assumed): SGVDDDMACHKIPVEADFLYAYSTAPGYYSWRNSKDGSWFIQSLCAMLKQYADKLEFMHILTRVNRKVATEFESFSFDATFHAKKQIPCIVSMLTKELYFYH
Method: as §2, §3
Linear and nonlinear regression fits of the experimental data to the equations were performed with KaleidaGraph software.

[2] = set-up: method as in PMID 21881605; conditions: cited from earlier work
HeLa cells = assay: Vincristine-induced HeLa cell death (propidium iodide, flow cytometry); assay type: cell-based, human; conditions: 1 h pretreatment, 20 nM vincristine 44 h
Method: as §1
Fig. 2 q33 and h33 are protective against the cytocidal effect of Vincristine. a Vincristine induces HeLa cell death. Cells were incubated for 44 h at 37 °C with 20 nM Vincristine (VCR), then incubated with propidium iodide at 2 μg/mL for 10 min and analyzed by flow cytometry to quantify plasma membrane permeabilization. Histograms show fluorescence intensity detected by flow cytometry (one representative experiment) in the presence (VCR) or Absence (Co.) of Vincristine. % of propidium iodide-positive cells are indicated for both conditions. b Dose–response of Vincristine-induced cell death. HeLa cells were incubated and treated as in (a) with the indicated doses of Vincristine (VCR) and analyzed by flow cytometry. […] Representative fluorescence microscopy micrographs of cells treated for 44 h with 20 nM vincristine (VCR) or not (Co.) and stained with Hoechst 33342. Vincristine induces progressive nuclear changes with first condensed nuclei (arrows) and then apoptotic bodies (dashed arrow). d Broad-spectrum irreversible caspase inhibitors prevent vincristine-induced cell death. HeLa cells were pretreated for 1 hr with the indicated broad-spectrum irreversible caspases inhibitors (z-VAD(OMe)-fmk at 30 μM, Q-VD-OPh 30 μM, Emricasan 10 μM, or the negative control Q-VE-OPh 30 μM), then treated with vincristine as in panel (a), and analyzed by flow cytometry. Histograms show the mean ± SD of 3 independent experiments (***p value < 0.001). e Effect of the reversible Caspase-2 inhibitors q33 and h33 against vincristine-induced cell death. HeLa cells were pretreated for 1 h with the indicated doses of q33 or h33, then treated with vincristine as in panel a, and analyzed by flow cytometry. Histograms show the mean ± SD of three independent experiments (*p value < 0.1). TEXT PRINTED IN THE PICTURE: (a) VCR: 39,5 % DOUBTS OF THE COPYIST ABOUT THIS PICTURE: Panel a: the picture prints no measure beside "39,5 %" and "4.1%". I assigned 39,5 % to VCR only because it stands by the grey VCR peak. / Panel a: "4.1%" seems to belong to the untreated control (Co.). That is not a substance, so it is left out.
Fig. 5 LJ2 inhibits cell death induced by microtubule destabilization and hydroxamic acid-based deacetylase (HDAC) inhibition. a Effect of the irreversible Caspase-2 inhibitors LJ2 against vincristine-induced cell death. HeLa cells were pretreated for 1 h with the indicated doses of LJ2, Q-VD-OPh, or Q-LETD-OPh, then treated with vincristine (VCR) as in Fig. 2, then incubated with propidium iodide at 2 μg/mL for 10 min and analyzed by flow cytometry. Histogram data are mean ± SD (n = 3, *p value < 0.01). b Effect of Caspases-inhibitors against Panobistat (LBH589)-induced cell death. […]

[3] = set-up: method as in PMID 31870950, PMID 31887369; conditions: cited from earlier work

CCO[C@@H]1OC(=O)C[C@@H]1NC(=O)[C@@H]1CCCN1C(=O)[C@@H](NC(=O)c1ccc(N)c(Cl)c1)C(C)(C)C [Belnacasan, (S)-1-((S)-2-{[1-(4-amino-3-chloro-phenyl)-methanoyl]-amino}-3,3-dimethyl-butanoyl)-pyrrolidine-2-carboxylic acid ((2R,3S)-2-ethoxy-5-oxo-tetrahydro-furan-3-yl)-amide]
effect against Panobistat (LBH589)-induced cell death [1]: did not affect cell death

COC(=O)CC(NC(=O)[C@H](C)NC(=O)C(NC(=O)[C@H](CC(=O)OC)NC(=O)[C@@H](NC(=O)c1ccc2ccccc2n1)C(C)C)C(C)C)C(=O)COc1c(F)cccc1F (stereo in doubt) [TRP601, Quinolin-2-carbonyl-VD(OMe)VAD(OMe)-CH2-O(2,6F2)Ph, reference compound]
Casp2 k3 (recombinant human Casp2): 5,56 ms^−1 | KI (inactivation) (recombinant human Casp2): 0.378 µM | Casp3 k3 (recombinant human Casp3): 4,24 ms^−1 | Casp3 k3/KI (recombinant human Casp3): 25 126 M^−1 s^−1 | KI (inactivation) (recombinant human Casp3): 0.209 µM | neuroprotection ([2]; after intraperitoneal and intraveinous administration): confer neuroprotection | Casp2 in the brain [2]: inhibit Casp2 in the brain | toxicity in regulatory rodent and non-rodent studies [2]: non-toxic

C[C@H](NC(=O)C(=O)Nc1ccccc1C(C)(C)C)C(=O)N[C@@H](CC(=O)O)C(=O)COc1c(F)c(F)cc(F)c1F [Emricasan]
inhibition at 10 µM (HeLa cells; Homo sapiens, inhibitor 10 µM): 95% | efficacy in large clinical phase 3 studies for the treatment of NASH [3]: failed to demonstrate efficacy | toxicity on chronic administration in humans [3]: not toxic nor carcinogenic

CC(C)[C@H](NC(=O)c1ccc2ccccc2n1)C(=O)N[C@@H](CC(=O)O)C(=O)COc1c(F)cccc1F [Q-VD-OPh]
inhibition of vincristine-induced cell death (HeLa cells; inhibitor 30 µM): > 90% | effect against Panobistat (LBH589)-induced cell death [1]: strongly inhibited cell death
